# Data from patent publication US6251881A, “Method of treating diabetic angiopathy” (priority 1999, dated 2001).
# How the values were obtained:
# [1] = tested on: humans; assay: administration to humans, adverse effects; assay type: in vivo, human; conditions: doses exceeding 15 g/m^2
# [2] = tested on: dogs; conditions: dog, in vivo
# [3] = tested on: mice; conditions: mouse, in vivo
# [4] = accepted value; cited from earlier work
# [5] = tested on: aldose reductase; conditions: humans, mainly in the 1980s; cited from earlier work
smiles,measurement,setting,value
O=S(=O)([O-])CCSSCCS(=O)(=O)[O-].[Na+].[Na+],adverse effects,[1],no adverse effects
same,adverse effects,[2],no adverse effects
same,adverse effects,[3],no adverse effects
[Cl-].[Na+] [common table salt],oral LD50,[4],3750 mg/kg
O=C1NC(=O)[C@@]2(CCOc3ccc(F)cc32)N1 [sorbinil],efficacy in slowing the progress of diabetic retinopathy,[5],some efficacy
same,tolerability in patients,[5],not well tolerated
